Key:
Format in all cases: in vivo
HUMAN OVARIAN BG-1 = assay: Early stage human ovarian BG-1 xenograft (Table IX); conditions: Balb/C SCID female mice
Text: (§1) Conventional Murine Tumor and Human Tumor Xenouraft Assays
(§2) Inhibition of tumors transplanted into mice is an accepted procedure for studying the efficacy of antitumor agents (Corbett, et al., In vivo Methods for Screening and Preclinical Testing; Use of rodent solid tumors for drug discovery., In: Anticancer Drug Development Guide: Preclinical Screening, Clinical Trials, and Approval, B. Teicher (ed), Humana Press Inc., Totowa, N.J., Chapter 5, pages 75–99 (1997); (Corbett, et al., Int., J. Parmacog., 33, Supplement, 102–122 (1995)). Murine tumors or human xenographs were implanted essentially as described by Corbett in In vivo Methods for Screening and Preclimical Testing; Use of rodent solid tumors for drug discovery. Briefly, the murine tumor or human xenograph was implanted subcutaneously using either 12-gauge trocar implants or counted number of cells. The location for the trocar insertion is midway between the axillary and inguinal region along the side of the mouse. The trocar is slipped approximately ¾ of an inch subcutaneously up toward the axilla before discharging the tumor fragment, and pinching the skin as the trocar is removed., Alternatively, human tumor cells prepared from a […] of donor tumors (5×10^6 cells) were implanted subcutaneously in a hind-leg of a male or female nude mouse (Charles River). Either a test compound in vehicle or vehicle alone was administered by intravenous bolus injection (iv), intraperitoneal injection (ip), or oral gavage (po). Each treatment group, as well as a group of untreated control animals, consisted of five animals per group in each experiment. Subcutaneous tumor response was monitored by tumor volume measurement performed twice each week over the course of the experiment (60–120 days). Body weights were taken as a general measure of toxicity. The subcutaneous tumor data were analyzed by determining the median tumor weight for each treatment group over the course of the experiment and calculating the tumor growth delay as the difference in days for the treatment versus the control tumors to reach a volume of either 500 or 1000 mm^3.
(§3) The compound of Example 110 was tested against a variety of murine and human tumors substantially as described supra. The parameters measured in each experiment are summarized in the following paragraphs. • Tumor Weight(mg)=(a×b^2)/2 where a=tumor length (mm) and b=tumor width (mm). • Tumor Growth Delay=T−C where T is the median time (days) required for the treatment group tumors to reach a predetermined size, and C is the median time (days) for the control group tumors to reach the same size. Tumor-free survivors are excluded from this calculation, and are tabulated separately (Tumor Free).
(§4) [formula] • where Tumor Growth Delay is as previously defined and Td is tumor volume doubling time (days), estimated from the best fit straight line from a log-linear growth plot of the control group of tumors in exponential growth (100–800 mg range) • % T/C mass—The treatment and control groups are measured when the control group tumors reach approximately 700 to 1200 mg in size (median group). The median tumor weight of each group is determined (including zeros). The T/C value in percent is an indication of antitumor effectiveness. A T/C≦42% is considered significant antitumor activity. A T/C<10% is considered to indicate highly significant antitumor activity. • Body Weight Loss Nadir—A body weight loss nadir (mean of group) of greater than 20% or drug deaths greater than 20% are considered to indicate an excessively toxic dosage in single course trials. • Activity Rating—the Activity Rating is derived from the Log Kill according to the following table: […]

[1] = system: bFGF-induced neoangiogenesis; assay: Rat corneal micropocket assay, bFGF disks; conditions: 160 mg/kg orally by gavage once per day, days 1 through 10; Fisher 344 female rats
Protocol: Rat Corneal Micropocket Assay
Fisher 344 female rats (145–155 grams; Taconic, Inc., Germantown, N.Y.) were anesthesized with acepromazine (2.5 mg/kg, ip) 20 minutes prior to initiation of 2–3% isoflurane/oxygen inhalation. The body temperature was maintained with a circulating hot water pad. The surgery was performed using an ophthalmic operating microscope (OMS.75 Operating Microscope, TopCon Corporation, Japan). A scalpel blade (#15) was used to make a vertical half-thickness linear corneal incision just lateral to the center of the eye. […] A pocket was formed in the cornea using blunt dissection with corneal scissors (Roboz, Rockville, Md.). Nitrocellulose filters ([…], Millipore, Bedford, Mass.) were cut into small disks using a 20 gauge needle punch. The disks were soaked in 2 μl of human VEGF solution ([…]; R&D Systems) or human basic fibroblast growth factor (0.20 μg/μl; R&D Systems) for 10 minutes on ice. Using forceps, the disks impregnated with the angiogenic factor (VEGF or bFGF) were inserted into the corneal pocket so that the disk is firmly covered with corneal epithelium. […] The images were analyzed by converting the area of interest to high contrast black and white reversed image and counting the bright pixels as a determination of the vascular area. […]

[2] = system: HUMAN COLON ADENOCARCINOMA-HCT116; assay: Early stage human colon adenocarcinoma HCT116 xenograft (Table IV); conditions: Balb/C SCID female mice
Text: as §1, §2, §3, §4

[3] = total dose 600 mg/kg: 100 mg/kg/injection IV on days 3–5 and 9–11
[4] = total dose 870 mg/kg: 145 mg/kg/injection IV on days 3–5 and 9–11
[5] = total dose 280 mg/kg: 70 mg/kg/injection IV on days 3, 4, 5, and 9
[6] = total dose 560 mg/kg: 140 mg/kg/injection IV on days 3, 4, 5, and 9

In the case of `O=C(NS(=O)(=O)c1ccccc1)c1ccc(Cl)cc1Cl` [Example 110, N-[2,4-dichlorobenzoyl]phenylsulfonamide], the “% BODY WT LOSS AT NADIR” value (HUMAN OVARIAN BG-1; [3]) is reported as −3.0%, the “% T/C MASS” value (HUMAN OVARIAN BG-1; [3]) is reported as 0% and the “ACTIVITY RATING” value (HUMAN OVARIAN BG-1; [3]) is reported as “++++ (HIGHLY ACTIVE >2.8)”. For the same compound, the “DRUG DEATHS” value (HUMAN OVARIAN BG-1; [3]) was 0/5, the “GROWTH DELAY” value (HUMAN OVARIAN BG-1; [3]) was 30 days and the “LOG KILL” value (HUMAN OVARIAN BG-1; [3]) was 3.6. The “TUMOR FREE AT DAY 176” value (HUMAN OVARIAN BG-1; [3]) was 0/5, the “% BODY WT LOSS AT NADIR” value (HUMAN OVARIAN BG-1; [4]) was −2.0% and the “% T/C MASS” value (HUMAN OVARIAN BG-1; [4]) was 0%. For the same compound, the “ACTIVITY RATING” value (HUMAN OVARIAN BG-1; [4]) was “++++ (HIGHLY ACTIVE >2.8)”, the “DRUG DEATHS” value (HUMAN OVARIAN BG-1; [4]) was 0/5 and the “GROWTH DELAY” value (HUMAN OVARIAN BG-1; [4]) was 30.5 days. The “LOG KILL” value (HUMAN OVARIAN BG-1; [4]) was 3.7, the “TUMOR FREE AT DAY 176” value (HUMAN OVARIAN BG-1; [4]) was 1/5 and the “inhibition of bFGF-induced neoangiogenesis” value [1] was “not an effective inhibitor”. For the same compound, the “% BODY WT LOSS AT NADIR” value [2, 5] was 0%, the “% T/C MASS” value [2, 5] was 0% and the “ACTIVITY RATING” value [2, 5] was “++++ (HIGHLY ACTIVE >2.8)”. For the same compound, the “DRUG DEATHS” value [2, 5] was 0/5, the “GROWTH DELAY” value [2, 5] was 28 days and the “LOG KILL” value [2, 5] was 3.4. The “TUMOR FREE AT DAY 115” value [2, 5] was 2/5, the “% BODY WT LOSS AT NADIR” value [2, 6] was −4.0% and the “% T/C MASS” value [2, 6] was 0%. The “ACTIVITY RATING” value [2, 6] was “++++ (HIGHLY ACTIVE >2.8)”, the “DRUG DEATHS” value [2, 6] was 0/5 and the “GROWTH DELAY” value [2, 6] was 56 days. For the same compound, the “LOG KILL” value [2, 6] was 6.7 and the “TUMOR FREE AT DAY 115” value [2, 6] was 2/5.

From patent US7183320B2, “Benzoylsulfonamides and sulfonylbenzamidines for use as antitumour agents” (Eli Lilly and Company, priority 2002, dated 2007)
